Assay results from publication PMC6368337, “GluClR-mediated inhibitory postsynaptic currents reveal targets for ivermectin and potential mechanisms of ivermectin resistance” (PLoS Pathogens, 2019).

Tests used:
Type in all cases: cell-based, H. contortus
[1] = molecular target: T1, β GluClRs (Haemonchus contortus, UniProt P91730); assay: Single channel recording, outside-out patches, β GluClRs; conditions: 2 μM glutamate plus 5 nM IVM
Excerpt: To explore whether a similar mechanism applies to β-containing GluClRs, we recorded single receptor currents in excised patches from cells transfected with either the α and β subunits (1:1) or the β subunit alone. […] By contrast, patches from cells transfected with the β subunit alone invariably opened to an amplitude of 0.4 pA (Fig 6C). Amplitude histograms confirmed two amplitude levels for αβ GluClRs and a single amplitude for the β GluClRs (Fig 6D). […] We infer that the αβ GluClRs that open to 0.7 pA likely contain a greater proportion of β subunits. This is consistent with β GluClRs having the smallest amplitude and α GluClRs having the greatest amplitude (1.8 pA) under similar recording conditions. The calculated conductance values for the corresponding amplitudes for αβ GluClRs was 15.2 pS and 8.9 pS and for the β GluClRs was 5.1 pS.
Single-channel currents were recorded from outside-out excised patches at a clamped potential of −70 mV. The single channel conductance was calculated by dividing the mean current by the net driving force at a clamped potential of ‐70 mV, after accounting for reversal and liquid junction potentials. Excised patches were continuously perfused via a gravity-fed double-barrelled glass tube, which contained extracellular bath solution containing (in mM), 140 NaCl, 5 KCl, 1 MgCl2, 2 CaCl2, 10 HEPES, and 10 D-glucose and titrated to pH 7.4. Glutamate and IVM were dissolved in this extracellular solution. Recording electrodes were pulled from borosilicate glass (G150F-3; Warner Instruments), coated with a silicone elastomer (Sylgard-184; Dow Corning) and heat-polished to a final tip resistance of 4–15 MΩ when filled with an intracellular solution containing (in mM) 145 CsCl, 2 MgCl2, 2 CaCl2, 10 HEPES, and 5 EGTA, pH 7.4. […] A 10 mM stock of IVM (Sigma-Aldrich) was dissolved in 100% DMSO and kept frozen at ‐20°C. Fresh working stocks of IVM at 5 nM were prepared by dissolving the appropriate quantity directly in extracellular solution. 100% DMSO when dissolved in extracellular solution alone at the same concentration as was present in working solutions containing 5 nM IVM had no effect on patches excised from cells transfected with GluClRs or from untransfected cells.
Currents were recorded using an Axopatch 200B amplifier (Molecular Devices), filtered at 5 kHz and digitized at 20 kHz using Clampex (pClamp 10 suite, Molecular Devices) via a Digidata 1440A digitizer.
Group data were analysed in SigmaPlot 13.0 using one-way ANOVAs, where p < 0.05 was taken as the significance threshold and expressed as mean ± SEM. Tests for normally distributed data are built into the SigmaPlot software. Confocal images were captured and analysed with Zen 2012 SP2 (Zeiss) software. Oocyte concentration-response data were fit to a Hill equation to obtain an EC50 and Hill co-efficient for each oocyte recording. These parameters were then averaged across multiple oocyte experiments of the same type. Single channel recordings were analysed in QuB software. […] Patches yielded between 30–250 individual active periods. […] The selected critical times eliminated periods of receptor desensitisation while retaining singe receptor active periods. Mean active period duration and intra-activation open probability was estimated from each patch. Group means were obtained by averaging across multiple patches for each recording condition.

[2] = molecular target: αβ (1:1) GluClRs (Haemonchus contortus, UniProt O46124+P91730); assay: IPSC recording in HEK293-neuron heteroculture, αβ (1:1) GluClRs; conditions: 5 nM IVM
Description: (§1) cDNAs encoding the α (avr-14b) (pcDNA 3.1+) or β (pUNIV) GluClR subunits of H. contortus were nuclear injected into oocytes (NASCO, WI USA) or transfected into HEK293AD cells (CellBank Australia) using a calcium phosphate-DNA co-precipitate method. Synapse formation between neurons and HEK293 cells was promoted by co-transfecting neuroligin 2A or 1B and the cDNA encoding CD4 surface antigen was also added to the transfection mixture so as to identify transfected cells. The oocytes and HEK cells were used for experiments 2–3 days after the introduction of the cDNAs. All experiments were done at room temperature (22 ± 1°C).
Primary neuronal cultures were prepared from cortices of E18 rat embryos, (University of Queensland Biological Services), which were triturated and plated at 100,000 cells per 18-mm poly-D-lysine-coated coverslip in DMEM with 10% fetal bovine serum. After 24 h the entire medium was replaced with Neurobasal medium that included 2% B27 and 1% GlutaMAX supplements. After one week half of this medium was replaced and the neurons were allowed to grow in vitro for 3–5 weeks before introducing the transfected HEK293 cells. Recordings of synaptic currents were done in whole-cell configuration at ‐70 mV using an Axopatch 200B amplifier (Molecular Devices), filtered at 5 kHz and digitized at 20 kHz using Clampex (pClamp 10 suite, Molecular Devices) via a Digidata 1440A digitizer.

[3] = molecular target: T1, β GluClRs; assay: Two-electrode voltage clamp in oocytes, β GluClRs; conditions: EC50, oocytes, −40 mV
Description: as §1
Xenopus laevis oocytes were harvested by surgical incision. The oocytes were then defolliculated with 1.5 mg/ml collagenase for 2 hours. Free oocytes were rinsed with calcium-free OR-2 solution containing (in mM) 82.5 NaCl, 2 KCl, 1 MgCl2, 5 HEPES, pH 7.4 and mature stage V or VI oocytes were isolated for experiments. The DNAs coding for α and β subunits were nuclear injected into the oocytes using a Nanoliter 2000 microinjector (WPI Inc) at a ratio of (α:β), 1:0, 0:1, 1:1 and 1:50. […]
Group data were analysed in SigmaPlot 13.0 using one-way ANOVAs, where p < 0.05 was taken as the significance threshold and expressed as mean ± SEM. […] Confocal images were captured and analysed with Zen 2012 SP2 (Zeiss) software. […] Single channel recordings were analysed in QuB software. […]

Chain of αβ (1:1) GluClRs (P91730 19-432): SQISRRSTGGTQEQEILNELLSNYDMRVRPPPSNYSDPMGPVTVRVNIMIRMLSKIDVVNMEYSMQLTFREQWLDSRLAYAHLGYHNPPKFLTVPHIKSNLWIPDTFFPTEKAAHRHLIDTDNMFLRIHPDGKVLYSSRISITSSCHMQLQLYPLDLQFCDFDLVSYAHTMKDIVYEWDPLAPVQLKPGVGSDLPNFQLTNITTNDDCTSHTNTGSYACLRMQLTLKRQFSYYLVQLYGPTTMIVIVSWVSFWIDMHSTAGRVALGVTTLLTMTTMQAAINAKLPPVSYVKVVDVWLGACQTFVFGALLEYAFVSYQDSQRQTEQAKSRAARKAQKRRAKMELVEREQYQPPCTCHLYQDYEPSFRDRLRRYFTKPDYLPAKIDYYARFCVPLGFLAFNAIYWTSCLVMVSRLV
Chain of αβ (1:1) GluClRs (O46124 entry or part of it): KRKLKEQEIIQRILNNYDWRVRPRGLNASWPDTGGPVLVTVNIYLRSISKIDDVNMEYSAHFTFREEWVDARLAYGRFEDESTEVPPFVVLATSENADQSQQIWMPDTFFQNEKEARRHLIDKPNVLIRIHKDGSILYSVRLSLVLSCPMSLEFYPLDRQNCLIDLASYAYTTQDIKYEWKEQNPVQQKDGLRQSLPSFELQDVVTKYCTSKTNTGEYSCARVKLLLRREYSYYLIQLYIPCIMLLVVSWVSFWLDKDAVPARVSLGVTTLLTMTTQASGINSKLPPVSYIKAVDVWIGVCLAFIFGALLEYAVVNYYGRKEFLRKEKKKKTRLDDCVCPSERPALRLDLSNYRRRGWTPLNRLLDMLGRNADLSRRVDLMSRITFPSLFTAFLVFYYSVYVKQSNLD
T1 sequence (P91730 19-432): as the sequence (P91730 19-432) above

Question: What does the source list for `CC[C@H](C)[C@H]1O[C@]2(CC[C@@H]1C)C[C@@H]1C[C@@H](C/C=C(\C)[C@@H](O[C@H]3C[C@H](OC)[C@@H](O[C@H]4C[C@H](OC)[C@@H](O)[C@H](C)O4)[C@H](C)O3)[C@@H](C)/C=C/C=C3\CO[C@@H]4[C@H](O)C(C)=C[C@@H](C(=O)O1)[C@]34O)O2` [IVM, Ivermectin]?
Answer: intra-activation open probability (PO) [1]: 0.62 ± 0.04; mean active period duration [1]: 120 ± 21 ms; IPSC activation (10–90% rise) time ([2]; 15 minutes): 10 ± 1 ms; peak IPSC amplitude ([2]; 15 minutes): 124 ± 18 pA; IPSC decay time constant ([2]; 15 minutes after start of application, −70 mV): 72 ± 4 ms; EC50 [3]: > 10 µM
